US12673975B2, “Cyclic peptide, cell scaffold material, cell separating material, and medium” (FUJIFILM Corporation, priority 2019, dated 2026)
Like-named read-outs stand apart in the source and are kept apart here. Starred links: 1 amine or outer side, 2 acyl side, 3 side chain; linkers in the order of their positions; H or OH if unused. Positions of bridges follow the written chain, without caps; N, C: chain ends. Non-standard residues stand in square brackets, D forms with d. Residues, ends and D or L forms follow the SMILES beside them. Pen = CC(C)(S)[C@H](N)C(=O)O; hCys = N[C@@H](CCS)C(=O)O; Dab = NCC[C@H](N)C(=O)O; X1 = O=C(C[*:2])[*:1]; X2 = O=C(C[*:1])[*:2]

Columns and labels:
[1] = Evaluation of molecule stability (alkali treatment, residual rate by LC/MS); format: physicochemical; conditions: for Performance evaluation: Stability (residual rate of cyclic peptide after alkali treatment): 500 μM peptide aqueous solution plus equivalent of 1 M sodium hydroxide, 15° C., 3 hours, LC/MS peak area; for Stability (molecule stability, residual rate of the cyclic peptide rank): alkali treatment, residual rate by LC/MS
Procedure, shortened: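 500 μM aqueous cyclic peptide mixed with an equal volume of 1 M NaOH and held 3 h at 15 °C. Residual rate is total LC/MS peak area after treatment relative to untreated (100%), using a C18 column, pH 3 ammonium formate/acetonitrile gradient, 45 °C, ESI±.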

human integrin αvβ5 = human integrin αvβ5 (Homo sapiens, UniProt P06756+P18084); assay: Evaluation of integrin binding property (surface plasmon resonance, Biacore 3000, immobilized cyclic peptide)
Sequence of human integrin αvβ5 (P06756 31-1048): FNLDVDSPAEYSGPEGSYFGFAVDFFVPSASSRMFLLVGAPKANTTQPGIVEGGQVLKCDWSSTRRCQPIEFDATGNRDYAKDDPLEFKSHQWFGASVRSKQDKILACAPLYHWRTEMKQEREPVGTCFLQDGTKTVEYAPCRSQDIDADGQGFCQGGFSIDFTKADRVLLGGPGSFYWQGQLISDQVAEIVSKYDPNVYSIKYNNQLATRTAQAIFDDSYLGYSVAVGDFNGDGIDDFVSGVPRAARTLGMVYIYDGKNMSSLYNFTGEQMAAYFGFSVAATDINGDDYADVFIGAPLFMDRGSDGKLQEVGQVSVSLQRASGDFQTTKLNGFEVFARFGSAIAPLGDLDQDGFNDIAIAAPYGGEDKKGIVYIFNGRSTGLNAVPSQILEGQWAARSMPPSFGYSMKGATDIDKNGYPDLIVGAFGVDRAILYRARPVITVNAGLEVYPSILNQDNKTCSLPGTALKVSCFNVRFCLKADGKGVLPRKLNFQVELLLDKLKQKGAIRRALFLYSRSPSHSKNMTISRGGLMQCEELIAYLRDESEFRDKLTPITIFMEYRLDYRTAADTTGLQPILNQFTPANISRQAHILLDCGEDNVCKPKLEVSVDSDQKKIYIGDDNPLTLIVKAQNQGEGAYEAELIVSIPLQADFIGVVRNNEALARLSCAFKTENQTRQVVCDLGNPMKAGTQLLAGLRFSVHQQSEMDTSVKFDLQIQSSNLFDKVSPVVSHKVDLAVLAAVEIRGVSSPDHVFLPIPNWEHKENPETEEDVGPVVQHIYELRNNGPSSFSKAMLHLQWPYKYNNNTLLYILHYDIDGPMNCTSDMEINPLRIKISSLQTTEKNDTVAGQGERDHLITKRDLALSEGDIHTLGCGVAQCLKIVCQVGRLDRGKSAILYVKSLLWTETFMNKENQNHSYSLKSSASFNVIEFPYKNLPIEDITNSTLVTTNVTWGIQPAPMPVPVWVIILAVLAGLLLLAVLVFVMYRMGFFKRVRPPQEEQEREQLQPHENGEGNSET
Sequence of human integrin αvβ5 (P18084 24-799): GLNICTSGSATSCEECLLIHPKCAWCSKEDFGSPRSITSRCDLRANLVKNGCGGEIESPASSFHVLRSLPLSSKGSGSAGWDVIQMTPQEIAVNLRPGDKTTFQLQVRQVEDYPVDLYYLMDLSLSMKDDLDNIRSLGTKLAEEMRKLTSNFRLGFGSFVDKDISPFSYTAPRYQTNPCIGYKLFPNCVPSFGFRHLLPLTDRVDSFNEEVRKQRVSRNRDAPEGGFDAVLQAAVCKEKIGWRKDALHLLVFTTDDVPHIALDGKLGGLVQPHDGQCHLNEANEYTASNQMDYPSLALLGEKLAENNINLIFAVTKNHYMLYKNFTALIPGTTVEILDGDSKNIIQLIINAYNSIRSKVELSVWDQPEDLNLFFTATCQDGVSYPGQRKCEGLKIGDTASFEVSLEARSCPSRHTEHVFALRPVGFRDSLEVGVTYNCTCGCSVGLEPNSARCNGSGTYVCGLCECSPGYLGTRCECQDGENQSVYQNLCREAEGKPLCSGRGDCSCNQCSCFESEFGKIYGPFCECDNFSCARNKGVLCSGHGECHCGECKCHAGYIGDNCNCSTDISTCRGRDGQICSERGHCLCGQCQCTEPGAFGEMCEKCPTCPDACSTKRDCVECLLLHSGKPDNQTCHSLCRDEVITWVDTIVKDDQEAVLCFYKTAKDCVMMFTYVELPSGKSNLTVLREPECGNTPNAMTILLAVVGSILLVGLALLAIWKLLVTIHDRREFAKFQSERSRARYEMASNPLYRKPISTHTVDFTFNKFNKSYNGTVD
Procedure, shortened: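 SPR with cyclic peptide amine-coupled via EDC/NHS to a CM5 chip, blank channel as reference. Integrin αvβ5 at 30, 100, 300 and 1,000 nM injected 10 min at 25 °C in HEPES buffer pH 7.4 with 5 mM MgCl2, 30 min buffer flow, EDTA regeneration; Kd from reference-subtracted signals, graded by category.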

[2] = SPR, 25° C., HEPES buffer with 5 mM magnesium chloride, integrin 30-1,000 nM, read-out: Performance evaluation: Binding activity (dissociation constant between the cyclic peptide and human integrin αvβ5)
[3] = surface plasmon resonance, immobilized cyclic peptide, human integrin αvβ5, read-out: Binding activity (integrin binding property, dissociation constant rank)

| Structure (SMILES) | Performance evaluation: Stability (residual rate of cyclic peptide after alkali treatment) [1] | Kd (human integrin αvβ5; [2]) | Stability (molecule stability, residual rate of the cyclic peptide rank) [1] | Kd (human integrin αvβ5; [3]) | Kd (human integrin αvβ5) |
| --- | --- | --- | --- | --- | --- |
| CC(C)C[C@@H]1NC(=O)[C@@H](NC(=O)[C@H](C)NC(=O)[C@H](CCCCN)NC(=O)[C@H](CCCCN)NC(=O)[C@@H](N)CCCCN)CCSCC(=O)NCC[C@@H](C(=O)N[C@@H](CC(=O)O)C(=O)O)NC(=O)[C@H](CCCNC(=N)N)NC(=O)[C@H](Cc2ccc(O)cc2)NC(=O)[C@H](CC(N)=O)NC(=O)[C@H](CC(=O)O)NC(=O)CNC(=O)[C@H](CCCNC(=N)N)NC(=O)[C@@H]2CCCN2C1=O [Cyclic peptide 31, KKKA-(Hcy)-LPRGDNYR(Dab(acetyl))D] (H-KKKA[hCys]LPRGDNYR[Dab]D-OH; linker 5-14 via X2) | A (The residual rate of the cyclic peptide is 70% or more.) | < 50 nM |  |  |  |
| CC(C)[C@@H]1NC(=O)[C@@H](NC(=O)[C@H](CCCCN)NC(=O)[C@H](CCCCN)NC(=O)[C@@H](N)CCCCN)CCSCC(=O)NCC[C@@H](C(=O)O)NC(=O)[C@H](Cc2ccccc2)NC(=O)[C@H]([C@@H](C)O)NC(=O)[C@H](CC(=O)O)NC(=O)CNC(=O)[C@H](CCCNC(=N)N)NC(=O)[C@@H]2CCCN2C1=O [Cyclic peptide 64, KKK-(Hcy)-VPRGDTF(Dab(acetyl))] (H-KKK[hCys]VPRGDTF[Dab]-OH; linker 4-12 via X2) | A (The residual rate of the cyclic peptide is 70% or more.) | < 50 nM |  |  |  |
| CC[C@H](C)[C@@H]1NC(=O)[C@@H](NC(=O)CNC(=O)[C@H](CCCCN)NC(=O)[C@H](CCCCN)NC(=O)[C@@H](N)CCCCN)CCSCC(=O)NCC[C@@H](C(=O)O)NC(=O)[C@H](CCCNC(=N)N)NC(=O)[C@H](Cc2ccccc2)NC(=O)[C@H](CC(N)=O)NC(=O)[C@H](CC(=O)O)NC(=O)CNC(=O)[C@H](CCCNC(=N)N)NC(=O)[C@@H]2CCCN2C1=O [Cyclic peptide 7, KKKG-(Hcy)-IPRGDNFR(Dab(acetyl))] (H-KKKG[hCys]IPRGDNFR[Dab]-OH; linker 5-14 via X2) | A (The residual rate of the cyclic peptide is 70% or more.) | < 50 nM |  |  |  |
| CC[C@H](C)[C@@H]1NC(=O)[C@@H](NC(=O)CNC(=O)[C@H](CCCCN)NC(=O)[C@H](CCCCN)NC(=O)[C@@H](N)CCCCN)CCCCNC(=O)CSC(C)(C)[C@@H](C(=O)N[C@@H](C)C(=O)O)NC(=O)[C@H](CCCNC(=N)N)NC(=O)[C@H](Cc2ccccc2)NC(=O)[C@H]([C@@H](C)O)NC(=O)[C@H](CC(=O)O)NC(=O)CNC(=O)[C@H](CCCNC(=N)N)NC(=O)[C@@H]2CCCN2C1=O [Cyclic peptide 135, KKKG(Lys(acetyl))IPRGDTFR-(Pen)-A] (H-KKKGKIPRGDTFR[Pen]A-OH; linker 5-14 via X1) |  |  | A (The residual rate of the cyclic peptide is 70% or more.) | 50 to 100 nM |  |
| CC[C@H](C)[C@@H]1NC(=O)[C@@H](NC(=O)[C@H](C)NC(=O)[C@H](CCCCN)NC(=O)[C@H](CCCCN)NC(=O)[C@@H](N)CCCCN)CCSCC(=O)NCC[C@@H](C(=O)O)NC(=O)[C@H](C)NC(=O)[C@H](Cc2ccccc2)NC(=O)[C@H](CO)NC(=O)[C@H](CC(=O)O)NC(=O)CNC(=O)[C@H](CCCNC(=N)N)NC(=O)[C@@H]2CCCN2C1=O [Cyclic peptide 162, KKKA-(Hcy)-IPRGDSFA(Dab(acetyl))] (H-KKKA[hCys]IPRGDSFA[Dab]-OH; linker 5-14 via X2) |  |  | A (The residual rate of the cyclic peptide is 70% or more.) | < 50 nM |  |
| CC(C)[C@@H]1NC(=O)[C@@H](NC(=O)[C@H](CCCCN)NC(=O)[C@H](CCCCN)NC(=O)[C@@H](N)CCCCN)CCSCC(=O)NCC[C@@H](C(=O)O)NC(=O)[C@H](Cc2ccccc2)NC(=O)[C@H](CC(N)=O)NC(=O)[C@H](CC(=O)O)NC(=O)CNC(=O)[C@H](CCCNC(=N)N)NC(=O)[C@@H]2CCCN2C1=O [Cyclic peptide 14, KKK-(Hcy)-VPRGDNF(Dab(acetyl))] (H-KKK[hCys]VPRGDNF[Dab]-OH; linker 4-12 via X2) | A (The residual rate of the cyclic peptide is 70% or more.) |  |  |  | < 50 nM |
| CC(C)[C@@H]1NC(=O)[C@@H](NC(=O)[C@H](C)NC(=O)[C@H](CCCCN)NC(=O)[C@H](CCCCN)NC(=O)[C@H](CCCCN)NC(=O)[C@H](CCCCN)NC(=O)[C@@H](N)CCCCN)CCSCC(=O)NCC[C@@H](C(=O)N[C@@H](C)C(=O)O)NC(=O)[C@H](C)NC(=O)[C@H](Cc2ccccc2)NC(=O)[C@H]([C@@H](C)O)NC(=O)[C@H](CC(=O)O)NC(=O)CNC(=O)[C@H](CCCNC(=N)N)NC(=O)[C@@H]2CCCN2C1=O [Cyclic peptide 111, KKKKKA-(Hcy)-VPRGDTFA(Dab(acetyl))A] (H-KKKKKA[hCys]VPRGDTFA[Dab]A-OH; linker 7-16 via X2) |  |  | A (The residual rate of the cyclic peptide is 70% or more.) | < 50 nM |  |
| CC[C@H](C)[C@@H]1NC(=O)[C@H](C)NC(=O)[C@@H](NC(=O)[C@H](CCCCN)NC(=O)[C@H](CCCCN)NC(=O)[C@@H](N)CCCCN)CCSCC(=O)NCC[C@@H](C(=O)N[C@@H](C)C(=O)O)NC(=O)[C@H](CCCNC(=N)N)NC(=O)[C@H](Cc2ccccc2)NC(=O)[C@H](CC(N)=O)NC(=O)[C@H](CC(=O)O)NC(=O)CNC(=O)[C@H](CCCNC(=N)N)NC(=O)[C@@H]2CCCN2C1=O [Cyclic peptide 15, KKK-(Hcy)-AIPRGDNFR(Dab(acetyl))A] (H-KKK[hCys]AIPRGDNFR[Dab]A-OH; linker 4-14 via X2) | A (The residual rate of the cyclic peptide is 70% or more.) | 50 to 100 nM |  |  |  |
| CC[C@H](C)[C@@H]1NC(=O)[C@@H](NC(=O)[C@H](CCCCN)NC(=O)[C@H](CCCCN)NC(=O)[C@@H](N)CCCCN)CCSCC(=O)NCC[C@@H](C(=O)N[C@@H](C)C(=O)O)NC(=O)[C@H](CCCNC(=N)N)NC(=O)[C@H](Cc2ccccc2)NC(=O)[C@H](CO)NC(=O)[C@H](CC(=O)O)NC(=O)CNC(=O)[C@H](CCCNC(=N)N)NC(=O)[C@@H]2CCCN2C1=O [Cyclic peptide 25, KKK-(Hcy)-IPRGDSFR(Dab(acetyl))A] (H-KKK[hCys]IPRGDSFR[Dab]A-OH; linker 4-13 via X2) | A (The residual rate of the cyclic peptide is 70% or more.) | 50 to 100 nM |  |  |  |
| CC(C)[C@@H]1NC(=O)[C@@H](NC(=O)[C@H](C)NC(=O)[C@H](CCCCN)NC(=O)[C@H](CCCCN)NC(=O)[C@@H](N)CCCCN)CCSCC(=O)NCC[C@@H](C(=O)NCC(=O)O)NC(=O)[C@H](C)NC(=O)[C@H](Cc2ccccc2)NC(=O)[C@H]([C@@H](C)O)NC(=O)[C@H](CC(=O)O)NC(=O)CNC(=O)[C@H](CCCNC(=N)N)NC(=O)[C@@H]2CCCN2C1=O [Cyclic peptide 107, KKKA-(Hcy)-VPRGDTFA(Dab(acetyl))G] (H-KKKA[hCys]VPRGDTFA[Dab]G-OH; linker 5-14 via X2) |  |  | A (The residual rate of the cyclic peptide is 70% or more.) | < 50 nM |  |
| CC(C)[C@@H]1NC(=O)[C@@H](NC(=O)[C@H](C)NC(=O)[C@H](CCCCN)NC(=O)[C@H](CCCCN)NC(=O)[C@@H](N)CCCCN)CCSCC(=O)NCC[C@@H](C(=O)N[C@@H](C)C(=O)O)NC(=O)[C@H](C)NC(=O)[C@H](Cc2ccccc2)NC(=O)[C@H](C)NC(=O)[C@H](CC(=O)O)NC(=O)CNC(=O)[C@H](CCCNC(=N)N)NC(=O)[C@@H]2CCCN2C1=O [Cyclic peptide 91, KKKA-(Hcy)-VPRGDAFA(Dab(acetyl))A] (H-KKKA[hCys]VPRGDAFA[Dab]A-OH; linker 5-14 via X2) | A (The residual rate of the cyclic peptide is 70% or more.) | < 50 nM |  |  |  |
| CC(C)[C@@H]1NC(=O)[C@@H](NC(=O)[C@H](CCCCN)NC(=O)[C@H](CCCCN)NC(=O)[C@@H](N)CCCCN)CCSCC(=O)NCC[C@@H](C(=O)N[C@@H](C)C(=O)O)NC(=O)[C@H](CCCNC(=N)N)NC(=O)[C@H](Cc2ccccc2)NC(=O)[C@H](CC(N)=O)NC(=O)[C@H](CC(=O)O)NC(=O)CNC(=O)[C@H](CCCNC(=N)N)NC(=O)[C@@H]2CCCN2C1=O [Cyclic peptide 21, KKK-(Hcy)-VPRGDNFR(Dab(acetyl))A] (H-KKK[hCys]VPRGDNFR[Dab]A-OH; linker 4-13 via X2) | A (The residual rate of the cyclic peptide is 70% or more.) | < 50 nM |  |  |  |
| C[C@@H]1NC(=O)[C@H](Cc2ccccc2)NC(=O)[C@H]([C@@H](C)O)NC(=O)[C@H](CC(=O)O)NC(=O)CNC(=O)[C@H](CCCNC(=N)N)NC(=O)[C@H]([C@@H](C)O)NC(=O)[C@H]([C@@H](C)O)NC(=O)[C@@H](NC(=O)[C@H](CCCCN)NC(=O)[C@H](CCCCN)NC(=O)[C@@H](N)CCCCN)CCSCC(=O)NCC[C@@H](C(=O)O)NC1=O [Cyclic peptide 155, KKK-(Hcy)-TTRGDTFA(Dab(acetyl))] (H-KKK[hCys]TTRGDTFA[Dab]-OH; linker 4-13 via X2) |  |  | A (The residual rate of the cyclic peptide is 70% or more.) | < 50 nM |  |
